This is an account of results in PMC3207847, “Characterization of a Novel Type of HIV-1 Particle Assembly Inhibitor Using a Quantitative Luciferase-Vpr Packaging-Based Assay” (PLoS ONE, 2011).

Data set [1] relates to HIV-1 VLP assembly. The data set can be described thus: microbe, parasite or virus in culture. As to conditions: for IC50: Human immunodeficiency virus 1, 24 h; for SI (ratio CC50:IC50): selectivity index. On the procedure:
Cell culture medium was then harvested at 48 h pi, subjected to the 2-step ultracentrifugation analysis, and each gradient fraction probed for Gag polyprotein and luciferase activity, as above. […] The gradient fractions corresponding to the peak of luciferase activity were pooled, and the VLP contained in these fractions were pelleted, lysed and assayed for luciferase content.
Drug treatment was maintained for a further 24 h, and VLP released in the cell culture medium were pelleted through a sucrose cushion. The amounts of extracellular VLP recovered in the 48 h-pellets obtained in the presence of the different inhibitors were determined using the luciferase assays. After normalization to the luciferase activity determined in the corresponding cell lysates, the values of the ratio of VLP-incorporated to cell-associated luciferase activity were plotted versus the drug concentrations.
Sf9 cell culture supernatants were clarified by low-speed centrifugation, then VLP recovered using a two-step procedure comprising a sucrose-step gradient centrifugation, followed by an ultracentrifugation in linear D2O-sucrose gradient, [53]. (i) In the first step, VLP contained in the cell culture medium were pelleted through a sucrose cushion (20%, w:v, in TNE buffer; TNE: 100 mM NaCl, 10 mM Tris-HCl pH 7.4, 1 mM Na2EDTA) at 30 krpm for 1 h at 15°C in a Kontron TST55.5 rotor [12]. Pelleted VLP of step (i) were then gently resuspended in PBS (0.20–0.25 ml), and (ii) further analyzed by isopycnic ultracentrifugation in sucrose-D2O gradients, [53]. Linear gradients (10-ml total volume, 30–50%, w:v) were centrifuged for 18 h at 28 krpm in a Beckman SW41 rotor. The 50% sucrose solution was made in D2O buffered to pH 7.2 with NaOH, and the 30% sucrose solution was made in 10 mM Tris-HCl, pH 7.2, 150 mM NaCl, 5.7 mM Na2EDTA. Aliquots of 0.5 ml were collected from the top, and fractions analyzed for protein content by SDS-PAGE and immunoblotting, and by luciferase assay as described below.
Aliquots of Sf9 cells (10^6) were infected with two recombinant baculoviruses at equal multiplicity of infection (MOI of 10 PFU/cell, each). One expressed the HIV-1 Gag precursor (AcMNPV-Pr55Gag or control, p6-deleted AcMNPV-GagΔp6), the other the control Vpr protein (AcMNPV-Vpr) or the LucVpr fusion (AcMNPV-LucVpr). […] To avoid any interference with a possible effect of DMSO, DMSO was kept constant in volume in the different samples. […] Cells were harvested at 48 h pi, and extracellular VLP released in the culture medium were quantitated using luciferase assay. Membrane-enveloped VLP were pelleted and resuspended in lysis KDT buffer (KDT: 0.1 M potassium phosphate buffer, pH 7.8, 1 mM DTT, containing 0.2% Triton X100) for 30 min at 37°C with vortexing every 10 min. Luciferase activity associated with VLP was measured as previously described, using a Lumat LB-9501 luminometer (Berthold Technologies, Bad Wildbad, Germany). […] To compensate for eventual negative effects of drugs on LucVpr expression, the luciferase activity was measured in the corresponding cell lysates, obtained after lysis of the pelleted cells with KDT buffer. The results were expressed as relative light units (RLU) per µg protein. The values of the ratio of VLP-associated to intracellular luciferase activity were plotted versus the inhibitor concentration.

Data set [2] can be described thus: MTT cytotoxicity assay. It is filed as cell-based, Spodoptera frugiperda. The conditions noted are these: Spodoptera frugiperda, MTT assay, mean. On the procedure:
(§1) The cellular toxicity of the different compounds was evaluated using the MTT assays. […] The selectivity index (SI) was defined as the CC50 to IC50 ratio.

Data set [3] concerns HIV-1 VLP assembly and budding. As to conditions: cited from earlier work.
Data set [4] relates to HIV-1 VLP assembly and budding. As to conditions: 10 µg/ml (17 µM); AcMNPV-Gag-infected Sf9 cells; cited from earlier work.
For data set [5], the system named is HIV-1 VLP assembly and budding. Nature of the data set: Electron microscopy of AcMNPV-Gag-infected Sf9 cells and released particles. In kind it is cell-based. The conditions noted are these: 5 and 10 µg/ml for 24 h at 24 h pi. On the procedure:
By contrast, control, untreated AcMNPV-Gag-infected Sf9 cells were decorated with VLP budding in abundance from the plasma membrane ( Fig. 8 , a; and also refer to [12], [28], [30], [32], [33], [53]).
Baculovirus-infected Sf9 cells were harvested at 48 h pi, pelleted, fixed with 2.5% glutaraldehyde in 0.1 M phosphate buffer, pH 7.5, post-fixed with osmium tetroxide (2% in H2O) and treated with 0.5% tannic acid solution in H2O. The specimens were dehydrated and embedded in Epon (Epon-812; Fulham, Latham, NY). Ultrathin sections were stained with 2.6% alkaline lead citrate and 0.5% uranyl acetate in 50% ethanol, and post-stained with 0.5% uranyl acetate solution in H2O [12], [28], [53]. Grids were examined under a Jeol JEM-1400 electron microscope, equiped with an ORIUS™ digitalized camera (Gatan France, 78113-Grandchamp). For statistical EM analyses, a minimum of 30 grid squares containing 10 to 20 cell sections each were examined for counting VLP budding at the cell surface, or budding in intracellular vesicular compartment.

Data set [6] deals with Sf9 cells. The data set can be described thus: MTT cytotoxicity assay. It is filed as cell-based, Spodoptera frugiperda. On the procedure: as §1
Data set [7] concerns HIV-1. The conditions noted are these: read-out: mean IC50, maturation cleavage of CAp24-SP1 / virus infectivity; cited from earlier work.
[8] abbreviates: read-out: IC50 (µM), 50% inhibitory activity on VLP assembly, Sf9 cells coexpressing Pr55Gag and LucVpr, drug added at 24 h pi for 24 h, mean.
Where [9] appears, read: read-out: IC50 (µg/ml), 50% inhibitory activity on VLP assembly, Sf9 cells coexpressing Pr55Gag and LucVpr, drug added at 24 h pi for 24 h, mean ± SEM, n = 4.

In brackets after ≈: the same amount, converted by molar mass. Where two headings read alike, the source gives them in different places.

`C=C(C)[C@@H]1CC[C@]2(C(=O)O)CC[C@]3(C)[C@H](CC[C@@H]4[C@@]5(C)CC[C@H](O)C(C)(C)[C@@H]5CC[C@]43C)[C@@H]12` [BA, betulinic acid, reference compound]: the IC50 in data set [1] (setting [8]) was determined as 39.4 µM; in data set [1] (setting [9]), 18 ± 3 µg/mL. Also, in data set [1], the “SI (ratio CC50:IC50)” value came out at 1.1. Further, it took 43.8 µM to reach half-maximal cytotoxicity in data set [2] (CC50).
As for `C=C(C)[C@@H]1CC[C@]2(C(=O)O)CC[C@]3(C)[C@H](CC[C@@H]4[C@@]5(C)CC[C@H](OC(=O)CC(C)(C)C(=O)O)C(C)(C)[C@@H]5CC[C@]43C)[C@@H]12` [PA-457, 3-O-(3',3'-dimethylsuccinyl)-betulinic acid], the IC50 in data set [3] (immuno-radiochemical assay of VLP) is 8 to 10 µM. The “IC50 on assembly and budding of HIV-1 VLP” value in data set [3] (insect cells expressing Pr55Gag, previous study ref 12) was 5 to 6 µg/mL. The “Effect on VLP budding and egress” value in data set [4] was “totally abolished VLP budding and egress”.
Turning to `C=C(C)[C@@H]1CC[C@]2(C(=O)NCC(=O)O)CC[C@]3(C)C(CCC4[C@@]5(C)CC[C@H](OC(=O)CC(C)(C)C(=O)O)C(C)(C)C5CC[C@]43C)C12` (some centres unmarked) [ST-327, Glycine-conjugated DSB], the results for the IC50 in data set [1] (setting [8]) and in data set [1] (setting [9]) were 5.9 µM and 3.8 ± 1.6 µg/mL, respectively. Besides, the “SI (ratio CC50:IC50)” value in data set [1] worked out at 5.3. For the same molecule, the CC50 (as a rule, the concentration giving 50% cytotoxicity) in data set [2] (Sf9 cells) came to 31.1 µM. For the same molecule, the “Effect on VLP assembly and budding (EM pattern)” value in data set [5] was “net inhibitory effect on VLP assembly and budding”.
Consider `C=C(C)[C@@H]1CC[C@]2(C(=O)NC(CCCCNC(=O)OC(C)(C)C)C(=O)O)CC[C@]3(C)C(CCC4[C@@]5(C)CC[C@H](OC(=O)CC(C)(C)C(=O)O)C(C)(C)C5CC[C@]43C)C12` (some centres unmarked) [EP-47, ε-N-tert-butoxycarbonyl-lysine-conjugated DSB], for which the IC50 is 1.9 µM in data set [1] (setting [8]) and 1 to 2 µg/mL in data set [1] (setting [9]). The “IC50 (µg/ml), 50% inhibitory activity on VLP assembly” value in data set [1] (Sf9 cells coexpressing Pr55Gag and LucVpr, drug added at 24 h pi for 24 h, mean ± SEM, n = 4) stood at 1.6 ± 0.5 µg/mL (≈ 1.97 µM). Further, in data set [1], the “SI (ratio CC50:IC50)” value was found to be 13.0. The molecule further had a CC50 in data set [2] (Sf9 cells) of 24.7 µM. Moreover, the “Effect on VLP assembly and budding (EM pattern)” value in data set [5] was “net inhibitory effect on VLP assembly and budding”.
As for `C=C(C)[C@@H]1CC[C@]2(C(=O)NCCC(=O)O)CC[C@]3(C)C(CCC4[C@@]5(C)CC[C@H](OC(=O)CC(C)(C)C(=O)O)C(C)(C)C5CC[C@]43C)C12` (stereo partly drawn) [EP-48, beta-alanine-conjugated DSB], the “Effect on VLP assembly (in words)” value in data set [1] is recorded as “no specific effect on VLP assembly”. For the same molecule, in data set [2] (Sf9 cells), the CC50 amounted to 4.2 µM. For the same molecule, the “Cytotoxic effect (in words)” value in data set [6] was “pronounced cytotoxic effect”.
For the molecule `C=C(C)[C@@H]1CC[C@]2(C(=O)NC(CCCCN)C(=O)O)CC[C@]3(C)C(CCC4[C@@]5(C)CC[C@H](OC(=O)CC(C)(C)C(=O)O)C(C)(C)C5CC[C@]43C)C12` (some centres unmarked) [EP-62, lysine-conjugated DSB with free lysine ε-NH2 group], in data set [1], the “Effect on VLP assembly (in words)” value was “no specific effect on VLP assembly” and the “SI (ratio CC50:IC50)” value is recorded as 0.7. The IC50 in data set [1] (setting [8]) turned out to be 4.8 µM. The IC50 in data set [1] (setting [9]) amounted to 3.4 ± 0.4 µg/mL. The molecule also yielded a CC50 in data set [2] (Sf9 cells) of 3.5 µM. The “Cytotoxic effect (in words)” value in data set [6] was “pronounced cytotoxic effect”.
The molecule `C=C(C)[C@@H]1CC[C@]2(C(=O)NCCN)CC[C@]3(C)C(CCC4[C@@]5(C)CC[C@H](OC(=O)CC(C)(C)C(=O)O)C(C)(C)C5CC[C@]43C)C12` (some centres unmarked) [EP-39, ethylene diamine-conjugated DSB] gave a CC50 in data set [2] (Sf9 cells) of 120 µM. In addition, the IC50 in data set [7] was 0.016 µM.
